According to ChEMBL document CHEMBL4251595, “Green approach for the synthesis of thiophenyl pyrazoles and isoxazoles by adopting 1,3-dipolar cycloaddition methodology and their antimicrobial activity” (2018):
In brackets after ≈: the same amount, converted by molar mass.

Columns and labels:
Format in all cases: functional
Staphylococcus aureus [1] = test: Bactericidal activity against Staphylococcus aureus incubated for 24 hrs followed by replating on sterile nutrient broth and incubated for 24 hrs by broth dilution test
Klebsiella pneumoniae [2] = test: Antimicrobial activity against Klebsiella pneumoniae assessed as zone of inhibition at 100 ug/well after 24 hrs by agar well diffusion method; settings: read-out: DIZ
Penicillium chrysogenum [3] = test: Antifungal activity against Penicillium chrysogenum assessed as zone of inhibition at 75 ug/well after 48 hrs by agar well diffusion method; settings: read-out: DIZ
Klebsiella pneumoniae [4] = test: Bactericidal activity against Klebsiella pneumoniae incubated for 24 hrs followed by replating on sterile nutrient broth and incubated for 24 hrs by broth dilution test
Bacillus subtilis [5] = test: Antimicrobial activity against Bacillus subtilis assessed as zone of inhibition at 50 ug/well after 24 hrs by agar well diffusion method; settings: read-out: DIZ
Pseudomonas aeruginosa [6] = test: Antimicrobial activity against Pseudomonas aeruginosa assessed as zone of inhibition at 75 ug/well after 24 hrs by agar well diffusion method; settings: read-out: DIZ
Klebsiella pneumoniae [7] = test: Antimicrobial activity against Klebsiella pneumoniae after 24 hrs by broth dilution test
Bacillus subtilis [8] = test: Bactericidal activity against Bacillus subtilis incubated for 24 hrs followed by replating on sterile nutrient broth and incubated for 24 hrs by broth dilution test
Staphylococcus aureus [9] = test: Antimicrobial activity against Staphylococcus aureus after 24 hrs by broth dilution test
Pseudomonas aeruginosa [10] = test: Antimicrobial activity against Pseudomonas aeruginosa assessed as zone of inhibition at 100 ug/well after 24 hrs by agar well diffusion method; settings: read-out: DIZ
Klebsiella pneumoniae [11] = test: Antimicrobial activity against Klebsiella pneumoniae assessed as zone of inhibition at 75 ug/well after 24 hrs by agar well diffusion method; settings: read-out: DIZ
Aspergillus niger [12] = test: Antifungal activity against Aspergillus niger assessed as zone of inhibition at 100 ug/well after 48 hrs by agar well diffusion method; settings: read-out: DIZ
Pseudomonas aeruginosa [13] = test: Bactericidal activity against Pseudomonas aeruginosa incubated for 24 hrs followed by replating on sterile nutrient broth and incubated for 24 hrs by broth dilution test
Staphylococcus aureus [14] = test: Antimicrobial activity against Staphylococcus aureus assessed as zone of inhibition at 100 ug/well after 24 hrs by agar well diffusion method; settings: read-out: DIZ
Bacillus subtilis [15] = test: Antimicrobial activity against Bacillus subtilis assessed as zone of inhibition at 100 ug/well after 24 hrs by agar well diffusion method; settings: read-out: DIZ
Penicillium chrysogenum [16] = test: Antifungal activity against Penicillium chrysogenum assessed as zone of inhibition at 100 ug/well after 48 hrs by agar well diffusion method; settings: read-out: DIZ
Bacillus subtilis [17] = test: Antimicrobial activity against Bacillus subtilis after 24 hrs by broth dilution test
Klebsiella pneumoniae [18] = test: Antimicrobial activity against Klebsiella pneumoniae assessed as zone of inhibition at 50 ug/well after 24 hrs by agar well diffusion method; settings: read-out: DIZ
Pseudomonas aeruginosa [19] = test: Antimicrobial activity against Pseudomonas aeruginosa after 24 hrs by broth dilution test
Aspergillus niger [20] = test: Antifungal activity against Aspergillus niger after 48 hrs by broth dilution test
Staphylococcus aureus [21] = test: Antimicrobial activity against Staphylococcus aureus assessed as zone of inhibition at 75 ug/well after 24 hrs by agar well diffusion method; settings: read-out: DIZ
Bacillus subtilis [22] = test: Antimicrobial activity against Bacillus subtilis assessed as zone of inhibition at 75 ug/well after 24 hrs by agar well diffusion method; settings: read-out: DIZ
Pseudomonas aeruginosa [23] = test: Antimicrobial activity against Pseudomonas aeruginosa assessed as zone of inhibition at 50 ug/well after 24 hrs by agar well diffusion method; settings: read-out: DIZ
Staphylococcus aureus [24] = test: Antimicrobial activity against Staphylococcus aureus assessed as zone of inhibition at 50 ug/well after 24 hrs by agar well diffusion method; settings: read-out: DIZ
Aspergillus niger [25] = test: Antifungal activity against Aspergillus niger assessed as zone of inhibition at 50 ug/well after 48 hrs by agar well diffusion method; settings: read-out: DIZ
Penicillium chrysogenum [26] = test: Antifungal activity against Penicillium chrysogenum assessed as zone of inhibition at 50 ug/well after 48 hrs by agar well diffusion method; settings: read-out: DIZ
Penicillium chrysogenum [27] = test: Fungicidal activity against Penicillium chrysogenum incubated for 48 hrs followed by replating on PDA and incubated for 48 hrs by broth dilution test
Aspergillus niger [28] = test: Antifungal activity against Aspergillus niger assessed as zone of inhibition at 75 ug/well after 48 hrs by agar well diffusion method; settings: read-out: DIZ
Aspergillus niger [29] = test: Fungicidal activity against Aspergillus niger incubated for 48 hrs followed by replating on PDA and incubated for 48 hrs by broth dilution test
Penicillium chrysogenum [30] = test: Antifungal activity against Penicillium chrysogenum after 48 hrs by broth dilution test

| SMILES | MBC (Staphylococcus aureus [1]) [µg/mL] | zone of inhibition at 100 µg/disc (Klebsiella pneumoniae [2]) [mm] | zone of inhibition at 75 µg/disc (Penicillium chrysogenum [3]) [mm] | MBC (Klebsiella pneumoniae [4]) [µg/mL] | zone of inhibition at 50 µg/disc (Bacillus subtilis [5]) [mm] | zone of inhibition at 75 µg/disc (Pseudomonas aeruginosa [6]) [mm] | MIC (Klebsiella pneumoniae [7]) [µg/mL] | MBC (Bacillus subtilis [8]) [µg/mL] | MIC (Staphylococcus aureus [9]) [µg/mL] | zone of inhibition at 100 µg/disc (Pseudomonas aeruginosa [10]) [mm] | zone of inhibition at 75 µg/disc (Klebsiella pneumoniae [11]) [mm] | zone of inhibition at 100 µg/disc (Aspergillus niger [12]) [mm] | MBC (Pseudomonas aeruginosa [13]) [µg/mL] | zone of inhibition at 100 µg/disc (Staphylococcus aureus [14]) [mm] | zone of inhibition at 100 µg/disc (Bacillus subtilis [15]) [mm] | zone of inhibition at 100 µg/disc (Penicillium chrysogenum [16]) [mm] | MIC (Bacillus subtilis [17]) [µg/mL] | zone of inhibition at 50 µg/disc (Klebsiella pneumoniae [18]) [mm] | MIC (Pseudomonas aeruginosa [19]) [µg/mL] | MIC (Aspergillus niger [20]) [µg/mL] | also measured |
| --- | --- | --- | --- | --- | --- | --- | --- | --- | --- | --- | --- | --- | --- | --- | --- | --- | --- | --- | --- | --- | --- |
| O=C(NS(=O)(=O)/C=C/c1ccc([N+](=O)[O-])cc1)c1ccc(Cl)s1 | 200 (≈ 536 µM) | 33 | 26 | 100 (≈ 268 µM) | 31 | 21 | 25 (≈ 67.1 µM) | 12.5 (≈ 33.5 µM) | 50 (≈ 134 µM) | 24 | 29 | 31 | 100 (≈ 268 µM) | 26 | 38 | 28 | 6.25 (≈ 16.8 µM) | 27 | 25 (≈ 67.1 µM) | 25 (≈ 67.1 µM) | zone of inhibition at 75 µg/disc (Staphylococcus aureus [21]): 24 mm; zone of inhibition at 75 µg/disc (Bacillus subtilis [22]): 34 mm; zone of inhibition at 50 µg/disc (Pseudomonas aeruginosa [23]): 19 mm; zone of inhibition at 50 µg/disc (Staphylococcus aureus [24]): 21 mm; zone of inhibition at 50 µg/disc (Aspergillus niger [25]): 27 mm; zone of inhibition at 50 µg/disc (Penicillium chrysogenum [26]): 24 mm; MFC (Penicillium chrysogenum [27]): > 200 µg/mL; zone of inhibition at 75 µg/disc (Aspergillus niger [28]): 29 mm; MFC (Aspergillus niger [29]): 100 µg/mL (≈ 268 µM); MIC (Penicillium chrysogenum [30]): 100 µg/mL (≈ 268 µM) |
| O=C(NS(=O)(=O)/C=C/c1ccc([N+](=O)[O-])cc1)c1cccs1 | > 200 | 31 | 24 | 200 (≈ 591 µM) | 30 | 19 | 50 (≈ 148 µM) | 50 (≈ 148 µM) | 100 (≈ 296 µM) | 21 | 30 | 28 | 100 (≈ 296 µM) | 25 | 36 | 27 | 12.5 (≈ 36.9 µM) | 26 | 25 (≈ 73.9 µM) | 25 (≈ 73.9 µM) | zone of inhibition at 75 µg/disc (Staphylococcus aureus [21]): 22 mm; zone of inhibition at 75 µg/disc (Bacillus subtilis [22]): 32 mm; zone of inhibition at 50 µg/disc (Pseudomonas aeruginosa [23]): 16 mm; zone of inhibition at 50 µg/disc (Staphylococcus aureus [24]): 19 mm; zone of inhibition at 50 µg/disc (Aspergillus niger [25]): 23 mm; zone of inhibition at 50 µg/disc (Penicillium chrysogenum [26]): 22 mm; MFC (Penicillium chrysogenum [27]): > 200 µg/mL; zone of inhibition at 75 µg/disc (Aspergillus niger [28]): 25 mm; MFC (Aspergillus niger [29]): 100 µg/mL (≈ 296 µM); MIC (Penicillium chrysogenum [30]): 100 µg/mL (≈ 296 µM) |
| O=C(NS(=O)(=O)c1c(-c2ccccc2)nn(-c2ccccc2)c1-c1ccc([N+](=O)[O-])cc1)c1ccc(Cl)s1 | 200 (≈ 354 µM) | 37 | 25 | 100 (≈ 177 µM) | 35 | 23 | 25 (≈ 44.2 µM) | 12.5 (≈ 22.1 µM) | 50 (≈ 88.5 µM) | 26 | 33 | 34 | 50 (≈ 88.5 µM) | 29 | 41 | 29 | 6.25 (≈ 11.1 µM) | 30 | 12.5 (≈ 22.1 µM) | 12.5 (≈ 22.1 µM) | zone of inhibition at 75 µg/disc (Staphylococcus aureus [21]): 28 mm; zone of inhibition at 75 µg/disc (Bacillus subtilis [22]): 38 mm; zone of inhibition at 50 µg/disc (Pseudomonas aeruginosa [23]): 22 mm; zone of inhibition at 50 µg/disc (Staphylococcus aureus [24]): 24 mm; zone of inhibition at 50 µg/disc (Aspergillus niger [25]): 29 mm; zone of inhibition at 50 µg/disc (Penicillium chrysogenum [26]): 24 mm; MFC (Penicillium chrysogenum [27]): 200 µg/mL (≈ 354 µM); zone of inhibition at 75 µg/disc (Aspergillus niger [28]): 31 mm; MFC (Aspergillus niger [29]): 50 µg/mL (≈ 88.5 µM); MIC (Penicillium chrysogenum [30]): 50 µg/mL (≈ 88.5 µM) |
| O=C(NS(=O)(=O)c1c(-c2ccccc2)noc1-c1ccc([N+](=O)[O-])cc1)c1ccc(Cl)s1 | 200 (≈ 408 µM) | 38 | 29 | 100 (≈ 204 µM) | 37 | 25 | 25 (≈ 51 µM) | 12.5 (≈ 25.5 µM) | 50 (≈ 102 µM) | 28 | 35 | 40 | 50 (≈ 102 µM) | 32 | 44 | 33 | 6.25 (≈ 12.8 µM) | 32 | 12.5 (≈ 25.5 µM) | 6.25 (≈ 12.8 µM) | zone of inhibition at 75 µg/disc (Staphylococcus aureus [21]): 30 mm; zone of inhibition at 75 µg/disc (Bacillus subtilis [22]): 39 mm; zone of inhibition at 50 µg/disc (Pseudomonas aeruginosa [23]): 23 mm; zone of inhibition at 50 µg/disc (Staphylococcus aureus [24]): 27 mm; zone of inhibition at 50 µg/disc (Aspergillus niger [25]): 35 mm; zone of inhibition at 50 µg/disc (Penicillium chrysogenum [26]): 27 mm; MFC (Penicillium chrysogenum [27]): 200 µg/mL (≈ 408 µM); zone of inhibition at 75 µg/disc (Aspergillus niger [28]): 37 mm; MFC (Aspergillus niger [29]): 12.5 µg/mL (≈ 25.5 µM); MIC (Penicillium chrysogenum [30]): 50 µg/mL (≈ 102 µM) |
